Measured values taken from publication PMC5703966, “Systemic clearance and brain distribution of carbazole-based cyanine compounds as Alzheimer’s disease drug candidates” (Scientific Reports, 2017).

What was measured:
Assay in all cases: OATP substrate identification, uptake in stably transfected HEK293 cells
OATP1B1 = molecular target: T1, OATP1B1 (Homo sapiens, UniProt Q9Y6L6); conditions: 1 and 10 μM, 10 mins
T1 sequence (Q9Y6L6 1-691): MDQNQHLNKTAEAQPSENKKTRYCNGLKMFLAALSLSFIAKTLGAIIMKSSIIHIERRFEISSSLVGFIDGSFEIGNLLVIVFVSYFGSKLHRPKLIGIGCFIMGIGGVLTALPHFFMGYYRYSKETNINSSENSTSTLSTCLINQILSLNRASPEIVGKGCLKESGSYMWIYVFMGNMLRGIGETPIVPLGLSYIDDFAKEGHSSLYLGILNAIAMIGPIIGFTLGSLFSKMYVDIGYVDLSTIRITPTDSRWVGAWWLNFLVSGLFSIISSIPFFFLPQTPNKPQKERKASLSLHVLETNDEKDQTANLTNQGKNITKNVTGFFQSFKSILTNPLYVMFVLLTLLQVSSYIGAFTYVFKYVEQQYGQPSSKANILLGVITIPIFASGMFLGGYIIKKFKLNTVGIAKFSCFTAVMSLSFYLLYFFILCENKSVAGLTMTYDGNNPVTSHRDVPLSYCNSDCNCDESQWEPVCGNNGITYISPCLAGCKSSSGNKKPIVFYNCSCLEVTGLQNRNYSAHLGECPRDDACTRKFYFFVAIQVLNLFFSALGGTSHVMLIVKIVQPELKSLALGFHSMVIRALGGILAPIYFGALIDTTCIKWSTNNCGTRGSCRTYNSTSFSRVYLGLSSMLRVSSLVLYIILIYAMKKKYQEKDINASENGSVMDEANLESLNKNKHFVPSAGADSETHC
Protocol: (§1) Daily changes of medium were performed and on the second day after seeding using medium containing 10 mM sodium butyrate.
(§2) Stably transfected HEK cells and control vector-transfected HEK293 cells were first washed (3 × 1 mL) with prewarmed HBSS (pH 7.4) and then were incubated with 250 μL of HBSS containing compounds at concentrations of 1 and 10 μM. Cells were incubated for 10 mins at 37 °C for all experiments. After incubation, uptake was stopped by aspirating the incubation solution and washing each well 3 times with 200 μL of ice-old HBSS. The cells were lysed in 150 μL of 1 M NaOH for 30 mins, and then neutralized by adding equal volumes of 1 M HCl.
(§3) The following equations (3 and 4) were used to calculate the uptake rates (U, pmol/mg/min) and the OATP1B1, OATP1B3, OATP2B1 and OATP1A2 uptake ratio (UR):3 U=Clysate/P×T 4 UR=UOATP1B1/1B3/2B1/1A2/UHEK293−MOCK where C lysate is the compound concentration in cell lysates. P is the protein concentration in cell lysates. T is the incubation time. U OATP1B1/1B3/2B1/1A2 is the uptake rate obtained in HEK293 stably transfected OATP1B1, OATP1B3, OATP2B1 or OATP1A2 transportation. U HEK293-MOCK is the uptake rate obtained in control vector-transfected HEK293 transportation.

OATP1B3 = molecular target: T2, OATP1B3 (Homo sapiens, UniProt Q9NPD5); conditions: 1 and 10 μM, 10 mins
T2 sequence (Q9NPD5 1-702): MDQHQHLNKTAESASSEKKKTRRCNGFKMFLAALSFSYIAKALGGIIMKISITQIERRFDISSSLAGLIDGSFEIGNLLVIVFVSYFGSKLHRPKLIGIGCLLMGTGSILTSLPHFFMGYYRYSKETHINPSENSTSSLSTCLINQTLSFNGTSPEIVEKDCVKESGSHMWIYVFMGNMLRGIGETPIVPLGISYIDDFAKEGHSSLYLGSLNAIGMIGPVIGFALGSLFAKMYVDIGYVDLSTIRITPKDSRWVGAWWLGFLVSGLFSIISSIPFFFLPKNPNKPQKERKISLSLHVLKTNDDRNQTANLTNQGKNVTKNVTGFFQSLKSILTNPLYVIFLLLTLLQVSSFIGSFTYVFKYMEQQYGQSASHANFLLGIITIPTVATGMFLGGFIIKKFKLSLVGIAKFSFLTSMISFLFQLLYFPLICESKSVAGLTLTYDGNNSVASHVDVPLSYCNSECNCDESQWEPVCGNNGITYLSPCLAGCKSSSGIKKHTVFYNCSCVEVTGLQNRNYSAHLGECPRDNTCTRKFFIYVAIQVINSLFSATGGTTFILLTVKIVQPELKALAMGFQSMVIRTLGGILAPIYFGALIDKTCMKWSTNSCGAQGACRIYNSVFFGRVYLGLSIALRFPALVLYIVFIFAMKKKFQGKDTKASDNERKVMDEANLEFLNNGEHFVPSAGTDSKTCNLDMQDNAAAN
Protocol: as §1, §2, §3

OATP2B1 = molecular target: T3, OATP2B1 (Homo sapiens, UniProt O94956); conditions: for uptake in cells transfected with OATP2B1 versus WT cells: 1 and 10 μM, 10 mins
T3 sequence (O94956 1-709): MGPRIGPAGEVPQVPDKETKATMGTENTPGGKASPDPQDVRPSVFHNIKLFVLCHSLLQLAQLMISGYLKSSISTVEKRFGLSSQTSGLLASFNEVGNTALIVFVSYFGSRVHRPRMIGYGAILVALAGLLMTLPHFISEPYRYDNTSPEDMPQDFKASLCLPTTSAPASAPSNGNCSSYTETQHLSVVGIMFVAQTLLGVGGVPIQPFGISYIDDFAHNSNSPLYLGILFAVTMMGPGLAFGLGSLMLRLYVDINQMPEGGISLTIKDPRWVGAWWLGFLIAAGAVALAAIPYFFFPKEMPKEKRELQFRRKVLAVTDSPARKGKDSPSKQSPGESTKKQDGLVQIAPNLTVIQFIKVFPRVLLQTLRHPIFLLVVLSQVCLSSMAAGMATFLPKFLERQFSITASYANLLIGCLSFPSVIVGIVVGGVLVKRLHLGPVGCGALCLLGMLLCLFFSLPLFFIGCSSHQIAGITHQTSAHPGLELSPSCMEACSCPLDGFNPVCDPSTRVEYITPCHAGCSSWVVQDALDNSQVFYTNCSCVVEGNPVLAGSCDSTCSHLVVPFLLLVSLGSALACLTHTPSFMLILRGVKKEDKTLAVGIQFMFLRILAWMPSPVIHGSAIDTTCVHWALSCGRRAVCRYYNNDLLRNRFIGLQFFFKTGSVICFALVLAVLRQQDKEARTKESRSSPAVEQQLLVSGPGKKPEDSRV
Protocol: as §1, §2, §3

| uptake by OATP1B1 transfected HEK293 versus WT cells (OATP1B1) | uptake by OATP1B3 transfected HEK293 versus WT cells (OATP1B3) | OATP2B1 substrate identification (OATP2B1) | uptake in cells transfected with OATP2B1 versus WT cells (OATP2B1) | Structure (SMILES) |
| --- | --- | --- | --- | --- |
| no significant differences | no significant differences | substrates | doubled | COCCOCCn1c2ccccc2c2cc(/C=C/c3cc[n+](CCO)c4ccccc34)ccc21 [SLOH, (E)-1-(2-hydroxyethyl)-4-(2-(9-(2-(2-metho-xyethoxy)-ethyl)-9H-carbazol-3-yl)vinyl) quinolin-1-ium chloride] |
| no significant differences | no significant differences | substrates | doubled | COCCOCCn1c2ccccc2c2cc(/C=C/c3cc[n+](C)c4ccccc34)ccc21.[I-] [SLM, (E)-4-(2-(9-(2-(2-methoxyethoxy)ethyl)-9H-carbazol-3-yl)-vinyl)-1-methyl-quinolin-1-iumiodide] |
